For 43 compounds, Activity and MIC results are on record in ChEMBL document CHEMBL1155955, “Structure-activity relationship studies of the chromosome segregation inhibitor, Incentrom A” (2008).

Values after ≈ are worked out from the molar mass of the structure shown. Active and inactive are the calls of the source. The calls are words filed in the database; no cut-off is given here. Where only a bound is given, the exact number is not on record here.

The test system of one assay is Saccharomyces cerevisiae. The assay can be described thus: Inhibition of chromosome segregation in yeast YPH278 at 15 uM. Type of assay: functional, organism-based.
`OC(CN1CCN(C/C=C/c2ccccc2)CC1)Cn1c2ccccc2c2ccccc21` (stereo unspecified): the result was Active.

The test system of another assay is Saccharomyces cerevisiae. Description: Inhibition of chromosome segregation in yeast YPH278 at 5 uM. Type of assay: functional, organism-based.
On to `C(=C\c1ccccc1)/CN1CCN(CCCCn2c3ccccc3c3ccccc32)CC1`, for which the outcome was Active.
In the case of `[N-]=[N+]=Nc1ccc(/C=C/CN2CCN(CCCCn3c4ccccc4c4ccccc43)CC2)cc1`, the outcome was Active.

Another assay has as its system Saccharomyces cerevisiae. Description: Antiproliferative activity against yeast YPH278 assessed as reduction in cell viability after 24 hrs. Type of assay: functional.
As a reminder, the MIC is the least concentration at which growth counts as inhibited. In the case of `CC(=O)OC(CN1CCN(C/C=C/c2ccccc2)CC1)Cn1c2ccccc2c2ccccc21` (stereo unspecified), the MIC is 18 µM (≈ 8.42 µg/mL).
The same measure, in the same setting: with `CC(=O)OC(Cc1ccccc1)CN1CCN(CCCCn2c3ccccc3c3ccccc32)CC1` (stereo unspecified) the figure was 18 µM (≈ 8.71 µg/mL); with `[N-]=[N+]=NC(CN1CCN(C/C=C/c2ccccc2)CC1)Cn1c2ccccc2c2ccccc21` (stereo unspecified), above 45 µM.
With `C(=C\c1ccccc1)/CN1CCN(CCCn2c3ccccc3c3ccccc32)CC1`, the MIC turned out to be 12 µM (≈ 4.91 µg/mL).
Still for that read-out and setting: with `O=C(OC(Cc1ccccc1)CN1CCN(CCCCn2c3ccccc3c3ccccc32)CC1)c1ccccc1` (stereo unspecified) the figure was above 45 µM.
Same read-out and setting: with `CCCCCCOc1ccc(CCCN2CCN(CCCCn3c4ccccc4c4ccccc43)CC2)cc1` the figure was above 45 µM.
Same read-out and setting: with `O[C@H](CN1CCN(C/C=C/c2ccccc2)CC1)Cn1c2ccccc2c2ccccc21` the figure was 14 µM (≈ 5.96 µg/mL).
For `c1ccc(CCCCN2CCN(CCCCn3c4ccccc4c4ccccc43)CC2)cc1`, the MIC was 5 µM (≈ 2.2 µg/mL).
With `Oc1ccc(CCCN2CCN(CCCCn3c4ccccc4c4ccccc43)CC2)cc1`, the MIC was 28 µM (≈ 12.4 µg/mL).
In the case of `c1ccc(CCN2CCN(CCCCn3c4ccccc4c4ccccc43)CC2)cc1`, the MIC came to 9 µM (≈ 3.7 µg/mL).
On the same count and under the same terms, with `CN(C)c1ccc(/C=C/CN2CCN(CCCCn3c4ccccc4c4ccccc43)CC2)cc1` the figure was 42 µM (≈ 19.6 µg/mL); with `Nc1ccc(CCCN2CCN(CCCCn3c4ccccc4c4ccccc43)CC2)cc1`, 16 µM (≈ 7.05 µg/mL).
Same read-out and setting: the result for `OC(CN1CCN(C/C=C/c2ccccc2)CC1)Cn1c2c(c3ccccc31)CCCC2` (stereo unspecified) reads 25 µM (≈ 10.7 µg/mL).
Regarding `C(=C\c1ccccc1)/CN1CCN(CCCCCCCCn2c3ccccc3c3ccccc32)CC1`, the MIC worked out at 44 µM (≈ 21.1 µg/mL).
The same measure, in the same setting: with `OC(CN1CCN(CCCc2ccccc2)CC1)Cn1c2ccccc2c2ccccc21` (stereo unspecified) the figure was 20 µM (≈ 8.55 µg/mL).
Same read-out and setting: with `O=c1c2ccccc2n(CCCCN2CCN(C/C=C/c3ccccc3)CC2)c2ccccc12` the figure was above 45 µM.
Same read-out and setting: with `O[C@@H](CN1CCN(C/C=C/c2ccccc2)CC1)Cn1c2ccccc2c2ccccc21` the figure was 15 µM (≈ 6.38 µg/mL); with `COc1cccc(/C=C/CN2CCN(CCCCn3c4ccccc4c4ccccc43)CC2)c1`, 12 µM (≈ 5.44 µg/mL).
Turning to `O=C(Nc1ccc2c(c1)c1ccccc1n2CCCCN1CCN(C/C=C/c2ccccc2)CC1)c1ccccc1`, the MIC is above 45 µM.
The same measure, in the same setting: with `O=C(OC(CN1CCN(C/C=C/c2ccccc2)CC1)Cn1c2ccccc2c2ccccc21)c1ccccc1` (stereo unspecified) the figure was above 45 µM; with `CC(=O)Nc1ccc2c(c1)c1ccccc1n2CCCCN1CCN(C/C=C/c2ccccc2)CC1`, above 45 µM.
Same read-out and setting: with `Oc1cccc(/C=C/CN2CCN(CCCCn3c4ccccc4c4ccccc43)CC2)c1` the figure was 27 µM (≈ 11.9 µg/mL).
On the same count and under the same terms, the result for `c1ccc(CCCCCN2CCN(CCCCn3c4ccccc4c4ccccc43)CC2)cc1` reads 4 µM (≈ 1.81 µg/mL); that for `C(=C\c1ccccc1)/CN1CCN(CCCCn2c3c(c4ccccc42)CCCC3)CC1`, 10 µM (≈ 4.28 µg/mL); that for `OC(CN1CCN(Cc2ccccc2)CC1)Cn1c2ccccc2c2ccccc21` (stereo unspecified), above 45 µM.
Regarding `OC(CN1CCN(C/C=C/c2ccccc2)CC1)Cn1ccc2ccccc21` (stereo unspecified), the MIC was above 45 µM.
Same read-out and setting: with `Nc1ccc(/C=C/CN2CCN(CCCCn3c4ccccc4c4ccccc43)CC2)cc1` the figure was 15 µM (≈ 6.58 µg/mL); with `O=[N+]([O-])c1ccc2c(c1)c1ccccc1n2CCCCN1CCN(C/C=C/c2ccccc2)CC1`, 5 µM (≈ 2.34 µg/mL); with `c1ccc(COc2ccc(CCCN3CCN(CCCCn4c5ccccc5c5ccccc54)CC3)cc2)cc1`, above 45 µM.
Same read-out and setting: with `c1ccc2c(c1)c1ccccc1n2CCCCN1CCN(CCCC2CCCCC2)CC1` the figure was 5 µM (≈ 2.16 µg/mL); with `OC(CN1CCN(C/C=C/c2ccccc2)CC1)CN1c2ccccc2Oc2ccccc21` (stereo unspecified), 7 µM (≈ 3.09 µg/mL).
Still for that read-out and setting: the result for `OC(CN1CCN(C/C=C/c2ccccc2)CC1)CN(c1ccccc1)c1ccccc1` (stereo unspecified) reads 45 µM (≈ 19.2 µg/mL).
Turning to `C(=C\c1ccccc1)/CN1CCN(CCCCn2c3ccccc3c3ccccc32)CC1`, the MIC came out at 5 µM (≈ 2.12 µg/mL).
Take `O=C(CN1CCN(C/C=C/c2ccccc2)CC1)Cn1c2ccccc2c2ccccc21`: the minimal inhibitory concentration (MIC) is above 45 µM.
`OC(CN1CCN(C/C=C/c2ccccc2)CC1)Cn1c2ccccc2c2ccccc21` (stereo unspecified): the MIC was determined as 15 µM (≈ 6.38 µg/mL).
For the compound `c1ccc2cc(CN3CCN(CCCCn4c5ccccc5c5ccccc54)CC3)ccc2c1`, the MIC came to 30 µM (≈ 13.4 µg/mL).
With `C(=C\c1ccccc1)/CN1CCN(CCCCCCn2c3ccccc3c3ccccc32)CC1`, the MIC stood at 7 µM (≈ 3.16 µg/mL).
`c1ccc(C2OC2CN2CCN(CCCCn3c4ccccc4c4ccccc43)CC2)cc1` (stereo unspecified): the MIC was found to be 7 µM (≈ 3.08 µg/mL).
Still for that read-out and setting: with `[N-]=[N+]=Nc1ccc(/C=C/CN2CCN(CCCCn3c4ccccc4c4ccccc43)CC2)cc1` the figure was 5 µM (≈ 2.32 µg/mL); with `COc1ccc(CCCN2CCN(CCCCn3c4ccccc4c4ccccc43)CC2)cc1`, 8 µM (≈ 3.65 µg/mL); with `CCCCCCCCOc1ccc(CCCN2CCN(CCCCn3c4ccccc4c4ccccc43)CC2)cc1`, above 45 µM.
Turning to `C(=C\c1ccccc1)/CN1CCN(CCCCCn2c3ccccc3c3ccccc32)CC1`, the MIC was 6 µM (≈ 2.63 µg/mL).
In the case of `OC(Cc1ccccc1)CN1CCN(CCCCn2c3ccccc3c3ccccc32)CC1` (stereo unspecified), the MIC worked out at 12 µM (≈ 5.3 µg/mL).
